These results are taken from US20210107871A1 (priority 2017, published 2021).

Test in all cases: microbe, parasite or virus in culture
Holding throughout (type): cell-based

Assay [1] has as its system pseudotype VSV (expressing GFP) having the surface glycoprotein of Ebola virus (zaire sp.). The following applies: for activity at 0.625 µM / activity at 0.312 µM / activity at 1.25 µM / activity at 5 µM / activity at 0.02 µM / activity at 0.078 µM / activity at 2.5 µM / activity at 0.005 µM: Vesicular stomatitis virus, Vero C1008, 18 h, read-out: Viral Infection rate (%); for activity at 0.625 µM: Compound Conc. 0.625 μM; for activity at 0.312 µM: Compound Conc. 0.312 μM; for activity at 1.25 µM: Compound Conc. 1.25 μM; for activity at 0.02 µM: Compound Conc. 0.020 μM; for activity at 0.078 µM: Compound Conc. 0.078 μM; for activity at 2.5 µM: Compound Conc. 2.5 μM; for activity at 0.005 µM: Compound Conc. 0.005 μM.

Assay [2] relates to sudan Ebola virus (pseudotype VSV). As to conditions: Sudan ebolavirus, read-out: C values.
Assay [3] relates to reston Ebola virus (pseudotype VSV). The following applies: Reston ebolavirus, read-out: C values.
For assay [4], the system named is tai forest Ebola virus (pseudotype VSV). As to conditions: read-out: C values.
The subject of assay [5] is Marburgvirus (Angola strain) (pseudotype VSV). As to conditions: Orthomarburgvirus, read-out: C values.
Assay [6] relates to bundibugyo Ebola virus (pseudotype VSV). The following applies: read-out: C values.

`CCN(CC)CCCN(c1ccccc1-c1ccccc1)S(=O)(=O)c1cccc2ccccc12` [4-13, N-[3-(diethylamino)propyl]-N-(2-phenyl-phenyl)naphthalene-1-sulfonamide]: the activity at 0.625 µM in assay [1] is 90.2%.
Regarding `CCN(CC)CCCN(c1ccccc1-c1ccccc1)S(=O)(=O)c1ccc(OC)cc1` [4-14, 4-methoxy-N-[3-(diethylamino)propyl]-N-(2-phenyl-phenyl)benzensulfonamide], in assay [1], the activity at 0.312 µM came to 77.4%, the activity at 0.625 µM was 42.2% and the activity at 1.25 µM came out at 7.82%. Besides, in assay [1] (Compound Conc. 5 μM), the activity at 5 µM was 0.83%.
On to `CCN(CC)CCCN(c1ccc(OC)cc1-c1ccccc1)S(=O)(=O)c1ccccc1` [4-17, N-[3-(diethylamino)propyl]-N-(4-methoxy-2-phenyl-phenyl)benzensulfonamide], for which the IC50 in assay [2] was ~300 nM. Moreover, in assay [3], the IC50 is ~1000 nM. Also, in assay [4], the IC50 is 500 to 1000 nM. Further, in assay [5], the IC50 was 1000 to 5000 nM. For the same compound, in assay [6], the IC50 is ~50 nM. Moreover, the IC50 in assay [1] (Vero C1008) was ~50 nM. Further, in assay [1], the activity at 0.02 µM came out at 72.6%, the activity at 0.078 µM was determined as 34.6%, the activity at 0.312 µM stood at 1.91% and the activity at 0.625 µM stood at 2.05%. Besides, in assay [1], the activity at 1.25 µM was 0.2% and the activity at 2.5 µM was found to be 0.81%. Moreover, the activity at 5 µM in assay [1] (Compound Conc. 5 μM) turned out to be 0.22%.
On to `COc1ccc(N(CC2CCN(C(=O)OC(C)(C)C)CC2)S(=O)(=O)c2ccccc2)c(-c2ccccc2)c1` [4-18, t-butyl-4-[[N-(benzenesulfonyl)-4-methoxy-2-phenyl-anilino]methyl]piperidine-1-carboxylate], for which the activity at 5 µM in assay [1] (Compound Conc. 5 μM) came out at 23.3%.
`COc1ccc(N(CC2CCNCC2)S(=O)(=O)c2ccccc2)c(-c2ccccc2)c1` [4-19, N-(4-methoxy-2-phenyl-phenyl)-N-(4-piperidylmethyl)benzensulfonamide]: in assay [1], the activity at 0.312 µM worked out at 83.3%, the activity at 0.625 µM came out at 78.5% and the activity at 1.25 µM was 52.3%. The activity at 5 µM in assay [1] (Compound Conc. 5 μM) is 2.2%.
`COc1ccc(N(CC2CCCN(C(=O)OC(C)(C)C)C2)S(=O)(=O)c2ccccc2)c(-c2ccccc2)c1` (stereo not drawn) [4-22, t-butyl-3-[[N-(benzenesulfonyl)-4-methoxy-2-phenyl-anilino]methyl]piperidine-1-carboxylate]: the activity at 5 µM in assay [1] (Compound Conc. 5 μM) was ~8.7%.
On to `COc1ccc(N(CC2CCCNC2)S(=O)(=O)c2ccccc2)c(-c2ccccc2)c1` (stereo not drawn) [4-23, N-(4-methoxy-2-phenyl-phenyl)-N-(3-piperidylmethyl)benzensulfonamide], for which, in assay [1], the activity at 0.312 µM stood at 100% and the activity at 2.5 µM is ~24.4%. Further, the activity at 5 µM in assay [1] (Compound Conc. 5 μM) was 1.79%.
Consider `CCN1CCCC(CN(c2ccc(OC)cc2-c2ccccc2)S(=O)(=O)c2ccccc2)C1` (stereo not drawn) [4-25], for which, in assay [1], the activity at 0.312 µM turned out to be 58.1%, the activity at 0.625 µM is 24.3%, the activity at 1.25 µM was determined as 2.51% and the activity at 2.5 µM was 0.14%. For the same compound, the activity at 5 µM in assay [1] (Compound Conc. 5 μM) was found to be 0.14%.
`CNCCCN(c1ccc(OC)cc1-c1ccccc1)S(=O)(=O)c1ccccc1` [4-30, N-(4-methoxy-2-phenyl-phenyl)-N-[3-(methylamino)propyl]-benzensulfonamide]: in assay [1], the activity at 0.005 µM is 92.6%, the activity at 0.02 µM was 91%, the activity at 0.078 µM was found to be 78.1% and the activity at 0.625 µM turned out to be 80.8%. In addition, the activity at 2.5 µM in assay [1] came to 4.17%.
`COc1ccc(N(CCCNC(=O)OC(C)(C)C)S(=O)(=O)c2ccccc2)c(-c2ccccc2)c1` [4-31, t-butyl-N-[3-[N-(benzenesulfonyl)-4-methoxy-2-phenyl-anilino]propyl]carbamate]: in assay [1], the activity at 0.312 µM is ~100%. Moreover, the activity at 5 µM in assay [1] (Compound Conc. 5 μM) amounted to 8.51%.
Turning to `COc1ccc(N(CCCN)S(=O)(=O)c2ccccc2)c(-c2ccccc2)c1` [4-32, N-(3-aminopropyl)-N-(4-methoxy-2-phenyl-phenyl)benzensulfonamide], in assay [1], the activity at 0.312 µM is 86%, the activity at 0.625 µM came out at 82.4%, the activity at 1.25 µM amounted to 57.8% and the activity at 2.5 µM is 15.8%. In assay [1] (Compound Conc. 5 μM), the activity at 5 µM amounted to 0.47%.
For `COc1ccc(N(CCN(C)C)S(=O)(=O)c2ccccc2)c(-c2ccccc2)c1` [4-33, N-[3-(dimethylamimo)ethyl]-N-(4-methoxy-2-phenyl-phenyl)benzensulfonamide] the same measures were 81.1%, 71.3%, 17.1%, 1.51% and 0.1%.
Consider `COc1ccc(N(CCN2CCOCC2)S(=O)(=O)c2ccccc2)c(-c2ccccc2)c1` [4-34, N-(4-methoxy-2-phenyl-phenyl)-N-(2-morpholinoethyl)benzensulfonamide], for which, in assay [1], the activity at 1.25 µM is 76.9% and the activity at 2.5 µM worked out at 40.2%. Moreover, the activity at 5 µM in assay [1] (Compound Conc. 5 μM) came out at 4.56%.
With `COc1ccc(N(CCN2CCCCC2)S(=O)(=O)c2ccccc2)c(-c2ccccc2)c1` [4-35, N-(4-methoxy-2-phenyl-phenyl)-N-[2-(1-piperidyl)ethyl]benzensulfonamide], in assay [1], the activity at 0.312 µM was determined as 89.5%, the activity at 0.625 µM came out at 82.3%, the activity at 1.25 µM amounted to 1.82% and the activity at 2.5 µM came to 30.3%.
`CCOc1ccc(N(CC2CCN(CC)CC2)S(=O)(=O)c2ccccc2)c(-c2ccccc2)c1` [4-39]: in assay [1], the activity at 0.005 µM amounted to 98.4%, the activity at 0.02 µM was 103% and the activity at 1.25 µM is 116%.
On to `COc1ccc(N(CC2CCCN(C)C2)S(=O)(=O)c2ccccc2)c(-c2ccccc2)c1` (stereo not drawn) [4-42], for which, in assay [1] (Compound Conc. 5 μM), the “Viral Infection rate (%)” value was 0.00% and the activity at 5 µM was ~0%. Also, in assay [1], the activity at 0.005 µM came to 95.6%, the activity at 0.02 µM came out at 101%, the activity at 0.078 µM worked out at 102% and the activity at 0.312 µM came out at 93%. Moreover, in assay [1], the activity at 0.625 µM was determined as 28.4% and the activity at 2.5 µM was determined as 0.25%.
For the compound `CCN1CCC(CN(c2ccc(C(C)C)cc2-c2ccccc2)S(=O)(=O)c2ccccc2)CC1` [4-45, N-(4-isopropyl-2-phenyl-phenyl)-N-(1-ethyl-4-piperidylmethyl)benzensulfonamide], in assay [1], the activity at 0.005 µM was 90.8%, the activity at 0.02 µM was 101%, the activity at 0.078 µM stood at 104% and the activity at 0.312 µM was determined as 103%. Also, the activity at 1.25 µM in assay [1] worked out at 69.5%. The activity at 5 µM in assay [1] (Compound Conc. 5 μM) was found to be 0.23%.
On to `CCN1CCC(CN(c2ccc(C(C)(C)C)cc2-c2ccccc2)S(=O)(=O)c2ccccc2)CC1` [4-48, N-(4-t-butyl-2-phenyl-phenyl)-N-(1-ethyl-4-piperidylmethyl)benzensulfonamide], for which, in assay [1], the activity at 0.005 µM was found to be 97.1%, the activity at 0.02 µM is 104% and the activity at 0.078 µM amounted to 96.3%. Further, the activity at 5 µM in assay [1] (Compound Conc. 5 μM) was determined as 47.6%.
As for `CCN1CCC(CN(c2ccc(OC)cc2-c2ccc(F)cc2)S(=O)(=O)c2ccccc2)CC1` [4-51, N-[2-(4-fluorophenyl)-4-methoxy-phenyl)-N-(1-ethyl-4-piperidylmethyl)benzensulfonamide], in assay [1], the activity at 0.005 µM was found to be 92.2%, the activity at 0.02 µM worked out at 84.5%, the activity at 0.078 µM came out at 45% and the activity at 0.312 µM came to 11.9%. The activity at 1.25 µM in assay [1] stood at 0.51%. Further, the activity at 5 µM in assay [1] (Compound Conc. 5 μM) amounted to 0%.
Regarding `CCN1CCC(CN(c2ccc(OC)cc2-c2cccc(F)c2)S(=O)(=O)c2ccccc2)CC1` [4-54, N-[2-(3-fluorophenyl)-4-methoxy-phenyl)-N-(1-ethyl-4-piperidylmethyl)benzensulfonamide], in assay [1], the activity at 0.02 µM amounted to 90%, the activity at 0.078 µM turned out to be 74.5%, the activity at 0.312 µM came out at 28.6% and the activity at 1.25 µM is 0.1%. Also, in assay [1] (Compound Conc. 5 μM), the activity at 5 µM is 0%.
With `CCN1CCC(CN(c2ccc(OC)cc2-c2ccccc2F)S(=O)(=O)c2ccccc2)CC1` [4-57, N-[2-(2-fluorophenyl)-4-methoxy-phenyl)-N-(1-ethyl-4-piperidylmethyl)benzensulfonamide], in assay [1], the activity at 0.005 µM came out at 101%, the activity at 0.078 µM worked out at 93.3%, the activity at 0.312 µM was found to be 58.2% and the activity at 1.25 µM came to 1%. Moreover, the activity at 5 µM in assay [1] (Compound Conc. 5 μM) amounted to 0.83%.
For the compound `CCN1CCC(CN(c2ccc(OC)cc2-c2ccccc2)S(=O)(=O)c2cccc(F)c2)CC1` [4-63, 3-fluoro-N-(4-methoxy-2-phenyl-phenyl)-N-(1-ethyl-4-piperidylmethyl)benzensulfonamide], in assay [1], the activity at 0.005 µM was determined as 96.7%, the activity at 0.02 µM turned out to be 96.2%, the activity at 0.078 µM is 78.2% and the activity at 0.312 µM was 34.3%. Further, in assay [1], the activity at 1.25 µM was 0.81%. Besides, the activity at 5 µM in assay [1] (Compound Conc. 5 μM) worked out at 0%.
For `CCN(CC)CCCN(c1ccc(OC)cc1-c1ccc(F)cc1)S(=O)(=O)c1ccccc1` [4-68, N-[3-(diethylamino)propyl]-N-[2-(4-fluorophenyl)-4-methoxy-phenyl)benzensulfonamide], in assay [1], the activity at 0.005 µM is 99.3% and the activity at 0.312 µM was found to be 52.8%. The activity at 5 µM in assay [1] (Compound Conc. 5 μM) is 0.25%.
